Results taken from PubChem BioAssay (NCI).
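Following 48 hours of exposure in 96-well plates, responses at five concentrations were used to interpolate endpoints linearly. At the GI50, growth is halved. TGI: concentration producing complete growth inhibition.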

Tests used:
Experiment in all cases: NCI anticancer screen, dose series, 48 h
786-0 renal = test system: 786-0 renal
A498 renal = test system: A498 renal
A549 NSCLC = test system: A549 NSCLC
ACHN renal = test system: ACHN renal
BT-549 breast = test system: BT-549 breast
CAKI-1 renal = test system: CAKI-1 renal
CCRF-CEM leukemia = test system: CCRF-CEM leukemia
COLO 205 colon = test system: COLO 205 colon
DU-145 prostate = test system: DU-145 prostate
HCC-2998 colon = test system: HCC-2998 colon
HCT-116 colon = test system: HCT-116 colon
HCT-15 colon = test system: HCT-15 colon
HL-60(TB) leukemia = test system: HL-60(TB) leukemia
HOP-62 NSCLC = test system: HOP-62 NSCLC
HOP-92 NSCLC = test system: HOP-92 NSCLC
HS 578T breast = test system: HS 578T breast
HT29 colon = test system: HT29 colon
IGROV1 ovarian = test system: IGROV1 ovarian
K-562 leukemia = test system: K-562 leukemia
KM12 colon = test system: KM12 colon
LOX IMVI melanoma = test system: LOX IMVI melanoma
M14 melanoma = test system: M14 melanoma
MALME-3M melanoma = test system: MALME-3M melanoma
MCF7 breast = test system: MCF7 breast
MDA-MB-231 breast = test system: MDA-MB-231 breast
MDA-MB-435 = test system: MDA-MB-435
MOLT-4 leukemia = test system: MOLT-4 leukemia
NCI-H226 lung = test system: NCI-H226 lung
NCI-H23 lung = test system: NCI-H23 lung
NCI-H460 lung = test system: NCI-H460 lung
NCI-H522 lung = test system: NCI-H522 lung
NCI/ADR-RES ovarian = test system: NCI/ADR-RES ovarian
OVCAR-3 ovarian = test system: OVCAR-3 ovarian
OVCAR-4 ovarian = test system: OVCAR-4 ovarian
OVCAR-5 ovarian = test system: OVCAR-5 ovarian
OVCAR-8 ovarian = test system: OVCAR-8 ovarian
PC-3 prostate = test system: PC-3 prostate
RPMI-8226 leukemia = test system: RPMI-8226 leukemia
RXF 393 renal = test system: RXF 393 renal
SF-268 CNS = test system: SF-268 CNS
SF-295 CNS = test system: SF-295 CNS
SF-539 CNS = test system: SF-539 CNS
SK-MEL-2 melanoma = test system: SK-MEL-2 melanoma
SK-MEL-28 melanoma = test system: SK-MEL-28 melanoma
SK-MEL-5 melanoma = test system: SK-MEL-5 melanoma
SK-OV-3 ovarian = test system: SK-OV-3 ovarian
SN12C renal = test system: SN12C renal
SNB-19 CNS = test system: SNB-19 CNS
SNB-75 CNS = test system: SNB-75 CNS
SR leukemia = test system: SR leukemia
SW-620 colon = test system: SW-620 colon
T-47D breast = test system: T-47D breast
TK-10 renal = test system: TK-10 renal
U251 CNS = test system: U251 CNS
UACC-257 melanoma = test system: UACC-257 melanoma
UACC-62 melanoma = test system: UACC-62 melanoma
UO-31 renal = test system: UO-31 renal

Question: Which results are given for `COc1ccccc1-c1ccc2nc(NC(=O)Nc3cc(C(F)(F)F)cc(C(F)(F)F)c3)sc2c1`?
Answer: GI50 (786-0 renal): 1.44 µM; TGI (786-0 renal): 3.25 µM; GI50 (A498 renal): 1.64 µM; TGI (A498 renal): 3.9 µM; GI50 (A549 NSCLC): 3.19 µM; TGI (A549 NSCLC): 11.8 µM; GI50 (ACHN renal): 2.14 µM; TGI (ACHN renal): 7.71 µM; GI50 (BT-549 breast): 1.62 µM; TGI (BT-549 breast): 3.72 µM; GI50 (CAKI-1 renal): 2.33 µM; TGI (CAKI-1 renal): 6.35 µM; GI50 (CCRF-CEM leukemia): 2.43 µM; TGI (CCRF-CEM leukemia): 15 µM; GI50 (COLO 205 colon): 1.65 µM; TGI (COLO 205 colon): 3.92 µM; GI50 (DU-145 prostate): 4 µM; TGI (DU-145 prostate): 14.9 µM; GI50 (HCC-2998 colon): 2.65 µM; TGI (HCC-2998 colon): 11.1 µM; GI50 (HCT-116 colon): 1.07 µM; TGI (HCT-116 colon): 2.45 µM; GI50 (HCT-15 colon): 2.55 µM; TGI (HCT-15 colon): 10.6 µM; GI50 (HL-60(TB) leukemia): 2.01 µM; TGI (HL-60(TB) leukemia): 4.53 µM; GI50 (HOP-62 NSCLC): 2.1 µM; TGI (HOP-62 NSCLC): 4.99 µM; GI50 (HOP-92 NSCLC): 1.19 µM; TGI (HOP-92 NSCLC): 4.31 µM; GI50 (HS 578T breast): 2.35 µM; TGI (HS 578T breast): 7.67 µM; GI50 (HT29 colon): 2.15 µM; TGI (HT29 colon): 9.21 µM; GI50 (IGROV1 ovarian): 2.83 µM; TGI (IGROV1 ovarian): 10.7 µM; GI50 (K-562 leukemia): 1.54 µM; TGI (K-562 leukemia): 8.95 µM; GI50 (KM12 colon): 2.07 µM; TGI (KM12 colon): 6.45 µM; GI50 (LOX IMVI melanoma): 1.68 µM; TGI (LOX IMVI melanoma): 3.13 µM; GI50 (M14 melanoma): 1.54 µM; TGI (M14 melanoma): 3.22 µM; GI50 (MALME-3M melanoma): 1.81 µM; TGI (MALME-3M melanoma): 4.29 µM; GI50 (MCF7 breast): 2.28 µM; TGI (MCF7 breast): 10.9 µM; GI50 (MDA-MB-231 breast): 1.95 µM; TGI (MDA-MB-231 breast): 4.24 µM; GI50 (MDA-MB-435): 2.27 µM; TGI (MDA-MB-435): 6.73 µM; GI50 (MOLT-4 leukemia): 1.58 µM; TGI (MOLT-4 leukemia): 7.24 µM; GI50 (NCI-H226 lung): 2.16 µM; TGI (NCI-H226 lung): 5.67 µM; GI50 (NCI-H23 lung): 2.02 µM; TGI (NCI-H23 lung): 7.09 µM; GI50 (NCI-H460 lung): 2.26 µM; TGI (NCI-H460 lung): 6.12 µM; GI50 (NCI-H522 lung): 1.76 µM; TGI (NCI-H522 lung): 9.35 µM; GI50 (NCI/ADR-RES ovarian): 2.37 µM; TGI (NCI/ADR-RES ovarian): 7.19 µM; GI50 (OVCAR-3 ovarian): 1.58 µM; TGI (OVCAR-3 ovarian): 4.58 µM; GI50 (OVCAR-4 ovarian): 2.12 µM; TGI (OVCAR-4 ovarian): 9.96 µM; GI50 (OVCAR-5 ovarian): 2.54 µM; TGI (OVCAR-5 ovarian): 9.66 µM; GI50 (OVCAR-8 ovarian): 3.04 µM; TGI (OVCAR-8 ovarian): 11.2 µM; GI50 (PC-3 prostate): 1.49 µM; TGI (PC-3 prostate): 6.93 µM; GI50 (RPMI-8226 leukemia): 1.63 µM; TGI (RPMI-8226 leukemia): 5.76 µM; GI50 (RXF 393 renal): 2.19 µM; TGI (RXF 393 renal): 6.18 µM; GI50 (SF-268 CNS): 2.86 µM; TGI (SF-268 CNS): 12.2 µM; GI50 (SF-295 CNS): 2.64 µM; TGI (SF-295 CNS): 9.33 µM; GI50 (SF-539 CNS): 1.99 µM; TGI (SF-539 CNS): 5.5 µM; GI50 (SK-MEL-2 melanoma): 2.09 µM; TGI (SK-MEL-2 melanoma): 6.09 µM; GI50 (SK-MEL-28 melanoma): 2.51 µM; TGI (SK-MEL-28 melanoma): 9.1 µM; GI50 (SK-MEL-5 melanoma): 1.57 µM; TGI (SK-MEL-5 melanoma): 2.98 µM; GI50 (SK-OV-3 ovarian): 2.92 µM; TGI (SK-OV-3 ovarian): 11.4 µM; GI50 (SN12C renal): 1.7 µM; TGI (SN12C renal): 3.36 µM; GI50 (SNB-19 CNS): 2.44 µM; TGI (SNB-19 CNS): 12.2 µM; GI50 (SNB-75 CNS): 2.25 µM; TGI (SNB-75 CNS): 11.8 µM; GI50 (SR leukemia): 1.76 µM; TGI (SR leukemia): 5.25 µM; GI50 (SW-620 colon): 3.04 µM; TGI (SW-620 colon): 11.2 µM; GI50 (T-47D breast): 2.16 µM; TGI (T-47D breast): 9.89 µM; GI50 (TK-10 renal): 4.03 µM; TGI (TK-10 renal): 13.2 µM; GI50 (U251 CNS): 2.31 µM; TGI (U251 CNS): 10.3 µM; GI50 (UACC-257 melanoma): 2.31 µM; TGI (UACC-257 melanoma): 6.52 µM; GI50 (UACC-62 melanoma): 1.56 µM; TGI (UACC-62 melanoma): 3.26 µM; GI50 (UO-31 renal): 1.79 µM; TGI (UO-31 renal): 4.07 µM
